US8815872B2, “Macrocyclics pyrimidines as aurora kinase inhibitors” (Merck Patent GmbH, priority 2008, dated 2014)

Tests used:
Experiment in all cases: Other kinases, single-concentration inhibition (Table 3)
Assay type in all cases: biochemical
Details in all cases: 1 μM
[1] = biological target: T1, NEK2(h) (Homo sapiens, UniProt P51955)
T1 construct: purchased Caliper Life Sciences
T1 sequence (P51955 1-445): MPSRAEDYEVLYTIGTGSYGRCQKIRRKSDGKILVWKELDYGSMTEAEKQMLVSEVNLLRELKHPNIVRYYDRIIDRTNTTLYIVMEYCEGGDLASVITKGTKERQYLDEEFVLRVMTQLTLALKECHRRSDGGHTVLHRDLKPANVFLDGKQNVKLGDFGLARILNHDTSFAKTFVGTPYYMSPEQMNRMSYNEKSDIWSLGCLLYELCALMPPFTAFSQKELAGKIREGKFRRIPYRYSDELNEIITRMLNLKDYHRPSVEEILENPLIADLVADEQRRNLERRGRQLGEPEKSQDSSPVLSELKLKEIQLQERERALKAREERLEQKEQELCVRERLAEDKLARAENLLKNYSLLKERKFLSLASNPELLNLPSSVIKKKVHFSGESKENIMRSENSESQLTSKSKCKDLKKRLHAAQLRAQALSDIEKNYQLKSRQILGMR
Description: (§1) The Aurora and other kinase assays described here were performed on two Caliper Life Sciences systems, the LC3000 and the Desktop Profiler. These provide data on enzyme activity via measurement of the relative amounts of phosphorylated or unphosphorylated fluorescently labelled substrate peptide at the end of an enzymatic reaction. These different states of peptide are resolved by applying a potential difference across the sample. The presence of a charged phosphate group on the product (as opposed to the substrate) causes a different peptide mobility between the two peptides. This is visualized by excitation of a fluorescent label on the substrate and product peptides and represented as peaks within the analysis software.
(§2) The Desktop Profiler utilizes the same principal as the LC 3000 for calculating percentage conversion of a substrate to product. Caliper Life Sciences provided proprietary flash frozen pre-made 384 well plates containing selected kinases. Each column in the 384 well plate contained a particular selected kinase. A second plate, the ‘substrate plate’ contained a mix of fluorescently labeled peptide substrate and ATP. These were arranged in columns so that transfer for substrate plate to enzyme plate provided the correct enzyme with the correct substrate/ATP concentration.
(§3) Compounds were added to a thawed enzyme plate in the desired format, in single concentrations. Reactions were initiated by transfer of the ubstrate/ATP mix from the substrate plate. The enzyme plate was incubated for 90 mins at 25 °C. The reaction was stopped by addition of […] of Stop Buffer (100 mM HEPES pH 7.5, 0.015% Brij-35, 10 mM EDTA (Sigma, E7889)).
(§4) Plates were read in a manner identical to that of the LC3000, and the ratio between substrate and product peaks provided the activity of the enzyme in that well. This was best represented by a plate heat map which colors each well by percent inhibition as compared to positive and negative controls (no inhibitors and no ATP respectively).

[2] = biological target: T2, cKit(D816V)(h) (Homo sapiens, UniProt P10721, D816V)
T2 construct: purchased Caliper Life Sciences
Description: as §1, §2, §3, §4

[3] = biological target: T3, Tie2(h) (Homo sapiens, UniProt Q02763)
T3 construct: purchased Caliper Life Sciences
Description: as §1, §2, §3, §4

[4] = biological target: T4, ZAP-70(h) (Homo sapiens, UniProt P43403)
T4 construct: purchased Caliper Life Sciences
T4 sequence (P43403 1-619): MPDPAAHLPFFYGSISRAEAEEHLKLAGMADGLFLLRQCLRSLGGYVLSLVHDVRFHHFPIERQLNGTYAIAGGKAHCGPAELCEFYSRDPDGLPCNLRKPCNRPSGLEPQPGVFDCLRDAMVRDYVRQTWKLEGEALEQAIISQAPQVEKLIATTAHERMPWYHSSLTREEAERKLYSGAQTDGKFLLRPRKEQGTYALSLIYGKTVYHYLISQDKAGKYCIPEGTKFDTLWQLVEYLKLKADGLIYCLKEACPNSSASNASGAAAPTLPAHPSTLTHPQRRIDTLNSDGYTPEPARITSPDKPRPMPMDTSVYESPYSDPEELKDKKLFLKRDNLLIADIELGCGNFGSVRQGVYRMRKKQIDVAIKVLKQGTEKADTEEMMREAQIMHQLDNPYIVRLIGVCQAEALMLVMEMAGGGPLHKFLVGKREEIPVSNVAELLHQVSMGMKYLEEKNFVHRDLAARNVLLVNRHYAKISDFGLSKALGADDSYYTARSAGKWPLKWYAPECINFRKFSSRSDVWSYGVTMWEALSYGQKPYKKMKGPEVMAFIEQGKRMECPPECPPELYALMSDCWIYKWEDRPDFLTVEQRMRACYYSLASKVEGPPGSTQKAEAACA
Description: as §1, §2, §3, §4

[5] = biological target: T5, Abl(h) (Homo sapiens, UniProt P00519)
T5 construct: purchased Caliper Life Sciences
Description: as §1, §2, §3, §4

[6] = biological target: T6, PDK1(h) (Homo sapiens, UniProt O15530)
T6 construct: purchased Caliper Life Sciences
T6 sequence (O15530 1-556): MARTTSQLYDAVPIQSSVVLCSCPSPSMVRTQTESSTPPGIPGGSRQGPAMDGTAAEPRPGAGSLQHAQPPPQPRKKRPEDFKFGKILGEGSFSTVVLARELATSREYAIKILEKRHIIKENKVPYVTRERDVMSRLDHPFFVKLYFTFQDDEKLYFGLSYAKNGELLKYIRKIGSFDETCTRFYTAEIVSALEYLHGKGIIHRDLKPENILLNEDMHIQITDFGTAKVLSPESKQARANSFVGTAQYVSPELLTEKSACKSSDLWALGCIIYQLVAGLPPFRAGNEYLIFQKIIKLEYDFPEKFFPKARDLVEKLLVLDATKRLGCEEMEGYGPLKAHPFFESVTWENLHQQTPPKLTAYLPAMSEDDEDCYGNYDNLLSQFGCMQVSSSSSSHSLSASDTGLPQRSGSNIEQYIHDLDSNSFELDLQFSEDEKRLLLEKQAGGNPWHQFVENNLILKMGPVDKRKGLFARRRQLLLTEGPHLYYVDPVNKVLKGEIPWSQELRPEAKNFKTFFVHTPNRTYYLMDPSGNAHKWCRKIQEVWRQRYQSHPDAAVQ
Description: as §1, §2, §3, §4

[7] = biological target: T7, Tie2(R849W)(h) (Homo sapiens, UniProt Q02763, R849W)
T7 construct: purchased Caliper Life Sciences
Description: as §1, §2, §3, §4

[8] = biological target: T8, TrkA(h) (Homo sapiens, UniProt P04629)
T8 construct: purchased Caliper Life Sciences
Description: as §1, §2, §3, §4

[9] = biological target: T9, TrkB(h) (Homo sapiens, UniProt Q16620)
T9 construct: purchased Caliper Life Sciences
Description: as §1, §2, §3, §4

T7 sequence (Q02763 23-1124 R849W): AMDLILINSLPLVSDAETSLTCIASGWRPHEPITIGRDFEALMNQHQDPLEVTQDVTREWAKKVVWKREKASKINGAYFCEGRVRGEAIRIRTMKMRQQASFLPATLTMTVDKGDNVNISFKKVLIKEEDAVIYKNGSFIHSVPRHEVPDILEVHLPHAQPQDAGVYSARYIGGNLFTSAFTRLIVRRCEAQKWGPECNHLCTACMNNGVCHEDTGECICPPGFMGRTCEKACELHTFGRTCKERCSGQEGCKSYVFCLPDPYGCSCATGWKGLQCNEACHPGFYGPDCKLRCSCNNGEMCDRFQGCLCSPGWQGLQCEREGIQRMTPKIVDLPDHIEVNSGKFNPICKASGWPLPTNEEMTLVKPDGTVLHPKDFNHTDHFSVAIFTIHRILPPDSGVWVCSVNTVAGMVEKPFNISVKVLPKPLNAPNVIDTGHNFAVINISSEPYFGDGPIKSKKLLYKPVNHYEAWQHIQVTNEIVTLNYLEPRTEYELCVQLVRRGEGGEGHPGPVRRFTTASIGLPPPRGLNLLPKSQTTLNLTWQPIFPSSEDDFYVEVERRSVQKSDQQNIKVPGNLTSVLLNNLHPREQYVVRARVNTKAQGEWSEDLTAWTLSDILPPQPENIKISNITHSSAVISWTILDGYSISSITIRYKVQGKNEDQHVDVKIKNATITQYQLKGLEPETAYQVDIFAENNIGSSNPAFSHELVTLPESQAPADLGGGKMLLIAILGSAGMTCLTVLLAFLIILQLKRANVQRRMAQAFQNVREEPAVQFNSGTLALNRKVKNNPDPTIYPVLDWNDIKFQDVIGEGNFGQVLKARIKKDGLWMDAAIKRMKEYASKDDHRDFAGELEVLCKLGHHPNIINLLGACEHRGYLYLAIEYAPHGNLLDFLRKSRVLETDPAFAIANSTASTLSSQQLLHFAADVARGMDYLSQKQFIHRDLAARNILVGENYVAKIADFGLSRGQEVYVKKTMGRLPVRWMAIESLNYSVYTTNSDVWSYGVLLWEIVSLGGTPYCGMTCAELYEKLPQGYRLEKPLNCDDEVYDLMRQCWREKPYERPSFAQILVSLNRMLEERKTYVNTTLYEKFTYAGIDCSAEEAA
T3 sequence (Q02763 23-1124): as the sequence (Q02763 23-1124 R849W) above, with W827R counted along it
T2 sequence (P10721 26-976 D816V): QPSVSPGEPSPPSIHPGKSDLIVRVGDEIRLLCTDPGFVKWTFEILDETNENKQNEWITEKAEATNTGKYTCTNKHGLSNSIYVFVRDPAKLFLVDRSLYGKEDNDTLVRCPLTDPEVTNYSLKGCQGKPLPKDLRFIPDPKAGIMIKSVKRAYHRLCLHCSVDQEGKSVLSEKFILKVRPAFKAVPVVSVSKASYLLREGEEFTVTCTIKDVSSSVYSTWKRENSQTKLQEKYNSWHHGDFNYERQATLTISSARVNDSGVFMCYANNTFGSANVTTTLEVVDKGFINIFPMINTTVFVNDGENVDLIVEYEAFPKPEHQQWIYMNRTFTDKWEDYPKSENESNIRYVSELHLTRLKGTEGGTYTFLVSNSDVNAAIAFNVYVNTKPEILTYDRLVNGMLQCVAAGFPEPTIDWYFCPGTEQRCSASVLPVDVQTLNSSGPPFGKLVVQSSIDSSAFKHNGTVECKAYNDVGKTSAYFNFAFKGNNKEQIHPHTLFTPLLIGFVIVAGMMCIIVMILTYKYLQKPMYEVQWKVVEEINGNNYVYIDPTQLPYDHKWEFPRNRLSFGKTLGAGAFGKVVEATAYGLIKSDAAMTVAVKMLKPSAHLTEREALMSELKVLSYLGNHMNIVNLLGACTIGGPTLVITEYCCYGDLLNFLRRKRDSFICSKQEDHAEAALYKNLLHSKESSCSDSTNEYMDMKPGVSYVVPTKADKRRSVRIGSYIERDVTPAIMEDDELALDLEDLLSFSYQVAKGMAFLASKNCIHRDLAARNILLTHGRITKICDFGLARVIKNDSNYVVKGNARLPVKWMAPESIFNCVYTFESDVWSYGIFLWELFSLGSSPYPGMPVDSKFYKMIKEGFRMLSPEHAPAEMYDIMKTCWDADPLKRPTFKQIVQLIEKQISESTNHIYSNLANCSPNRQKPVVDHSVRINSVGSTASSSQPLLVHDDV
T8 sequence (P04629 33-796): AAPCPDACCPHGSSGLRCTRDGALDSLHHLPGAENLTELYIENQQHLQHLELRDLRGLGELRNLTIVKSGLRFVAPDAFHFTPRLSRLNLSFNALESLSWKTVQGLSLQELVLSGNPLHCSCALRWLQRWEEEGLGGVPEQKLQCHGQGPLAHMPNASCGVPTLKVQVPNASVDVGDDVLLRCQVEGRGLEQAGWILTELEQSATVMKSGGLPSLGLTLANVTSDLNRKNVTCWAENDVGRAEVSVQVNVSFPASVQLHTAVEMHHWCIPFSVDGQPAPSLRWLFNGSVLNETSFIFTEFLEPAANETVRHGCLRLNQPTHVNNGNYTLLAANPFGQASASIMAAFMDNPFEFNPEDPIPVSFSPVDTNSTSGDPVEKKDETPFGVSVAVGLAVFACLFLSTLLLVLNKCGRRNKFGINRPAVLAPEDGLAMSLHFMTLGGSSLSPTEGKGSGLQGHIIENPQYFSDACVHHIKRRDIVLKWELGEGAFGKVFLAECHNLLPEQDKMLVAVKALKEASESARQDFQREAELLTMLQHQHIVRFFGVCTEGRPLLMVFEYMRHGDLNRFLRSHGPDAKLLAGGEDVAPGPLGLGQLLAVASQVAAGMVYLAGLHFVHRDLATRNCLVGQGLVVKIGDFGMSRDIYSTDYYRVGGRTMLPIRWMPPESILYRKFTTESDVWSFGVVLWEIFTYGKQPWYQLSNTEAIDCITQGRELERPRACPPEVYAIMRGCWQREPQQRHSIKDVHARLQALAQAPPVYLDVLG
T5 sequence (P00519 whole entry): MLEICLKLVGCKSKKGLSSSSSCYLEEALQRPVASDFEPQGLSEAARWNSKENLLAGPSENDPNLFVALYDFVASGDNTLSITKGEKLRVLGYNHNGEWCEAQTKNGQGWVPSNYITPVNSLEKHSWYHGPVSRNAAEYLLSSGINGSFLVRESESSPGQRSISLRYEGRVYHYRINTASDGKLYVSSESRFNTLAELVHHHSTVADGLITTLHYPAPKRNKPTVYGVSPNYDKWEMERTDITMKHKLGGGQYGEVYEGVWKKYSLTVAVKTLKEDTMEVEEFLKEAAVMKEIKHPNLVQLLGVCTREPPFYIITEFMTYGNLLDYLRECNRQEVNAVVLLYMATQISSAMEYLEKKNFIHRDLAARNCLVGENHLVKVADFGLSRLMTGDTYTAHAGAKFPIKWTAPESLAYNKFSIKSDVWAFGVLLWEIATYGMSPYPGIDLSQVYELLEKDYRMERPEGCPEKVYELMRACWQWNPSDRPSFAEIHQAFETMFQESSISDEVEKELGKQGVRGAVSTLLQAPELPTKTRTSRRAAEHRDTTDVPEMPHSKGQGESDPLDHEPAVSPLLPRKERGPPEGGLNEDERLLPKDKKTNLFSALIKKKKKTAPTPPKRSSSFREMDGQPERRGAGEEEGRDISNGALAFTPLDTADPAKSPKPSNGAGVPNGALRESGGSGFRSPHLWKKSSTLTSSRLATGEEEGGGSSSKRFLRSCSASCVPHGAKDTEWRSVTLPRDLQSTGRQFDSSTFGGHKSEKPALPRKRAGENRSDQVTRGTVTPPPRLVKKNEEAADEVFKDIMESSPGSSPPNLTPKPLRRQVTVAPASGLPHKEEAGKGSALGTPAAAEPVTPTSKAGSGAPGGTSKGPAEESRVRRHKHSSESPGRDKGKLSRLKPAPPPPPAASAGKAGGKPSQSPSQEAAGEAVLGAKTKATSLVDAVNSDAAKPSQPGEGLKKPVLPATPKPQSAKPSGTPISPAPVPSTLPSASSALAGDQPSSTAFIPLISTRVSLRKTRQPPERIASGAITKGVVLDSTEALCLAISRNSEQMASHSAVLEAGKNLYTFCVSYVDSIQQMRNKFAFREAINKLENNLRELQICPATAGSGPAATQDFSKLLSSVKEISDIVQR
T9 sequence (Q16620 32-822): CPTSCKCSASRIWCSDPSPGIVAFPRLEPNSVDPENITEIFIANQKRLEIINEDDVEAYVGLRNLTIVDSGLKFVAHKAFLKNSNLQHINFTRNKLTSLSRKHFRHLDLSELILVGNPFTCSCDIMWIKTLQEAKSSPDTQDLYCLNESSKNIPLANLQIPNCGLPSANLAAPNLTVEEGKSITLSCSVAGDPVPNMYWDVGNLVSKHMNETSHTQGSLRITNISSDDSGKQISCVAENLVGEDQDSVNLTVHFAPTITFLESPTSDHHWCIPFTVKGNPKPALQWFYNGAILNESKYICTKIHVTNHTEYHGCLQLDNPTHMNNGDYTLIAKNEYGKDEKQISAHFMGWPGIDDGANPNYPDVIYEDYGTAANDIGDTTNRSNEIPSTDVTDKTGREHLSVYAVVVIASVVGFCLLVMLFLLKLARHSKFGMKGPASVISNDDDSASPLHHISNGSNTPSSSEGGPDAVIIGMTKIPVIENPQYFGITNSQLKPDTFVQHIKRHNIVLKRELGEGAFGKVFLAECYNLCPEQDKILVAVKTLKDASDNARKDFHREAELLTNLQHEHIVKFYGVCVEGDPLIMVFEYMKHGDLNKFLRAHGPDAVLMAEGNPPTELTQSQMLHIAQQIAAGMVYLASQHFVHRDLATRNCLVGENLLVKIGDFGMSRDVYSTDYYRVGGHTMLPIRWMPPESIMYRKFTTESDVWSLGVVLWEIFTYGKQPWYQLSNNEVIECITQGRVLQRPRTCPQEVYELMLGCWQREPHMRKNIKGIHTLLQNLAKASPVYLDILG

SMILES	% inhibition NEK2(h) [1]	% inhibition cKit(D816V)(h) [2]	% inhibition Tie2(h) [3]	% inhibition ZAP-70(h) [4]	inhibition at 1 µM [5]	% inhibition PDK1(h) [6]	% inhibition Tie2(R849W)(h) [7]	% inhibition TrkA(h) [8]	% inhibition TrkB(h) [9]
CC[C@@H]1C[C@@H]2CCCOc3cccc(c3)Nc3ncc(F)c(n3)N[C@H]2[C@H]1C(N)=O (single isomer, unassigned) [Example 5]	110%	103%	104%	122%	105%	92%	92%	60%	85%
NC(=O)[C@H]1[C@H]2C[C@H]3[C@H]1Nc1nc(ncc1F)Nc1cccc(c1)OCCS[C@@H]3C2 [Example 20]	103%	112%	8%	122%	79%	80%	14%	1%	5%
NC(=O)[C@H]1[C@H]2C[C@H]3[C@H]1Nc1nc(ncc1F)Nc1cccc(c1)C(=O)CS[C@@H]3C2 [Example 11]	98%	102%	91%	124%	92%	98%	103%	8%	32%

The next lines start with the values.

% inhibition NEK2(h) [1]	% inhibition cKit(D816V)(h) [2]	% inhibition Tie2(h) [3]	% inhibition ZAP-70(h) [4]	inhibition at 1 µM [5]	% inhibition PDK1(h) [6]	% inhibition Tie2(R849W)(h) [7]	% inhibition TrkA(h) [8]	% inhibition TrkB(h) [9]	SMILES
113%	95%	2%	125%	3%	86%	17%	1%	5%	NC(=O)[C@H]1[C@H]2C[C@H]3[C@H]1Nc1nc(ncc1F)Nc1cccc(c1)NC(=O)CS[C@@H]3C2 [Example 27]
79%	112%	44%	112%	-1%	88%	26%	1%	3%	N#Cc1ccc2cc1NC(=O)CS[C@@H]1C[C@@H]3C[C@H]1[C@@H](Nc1nc(ncc1F)N2)[C@H]3C(N)=O [Example 26]
101%	97%	8%	112%	-4%	108%	28%	5%	1%	CN1CCN(c2ccc3cc2NC(=O)CS[C@@H]2C[C@@H]4C[C@H]2[C@@H](Nc2nc(ncc2F)N3)[C@H]4C(N)=O)CC1 [Example 24]
